Measurements from patent US20190136292A1, “Universal Calibration Method for Assaying Enzymatic Inhibitors” (Diagnostica Stago, priority 2016, published 2019).
“And” between values parts separate entries of the source, which are not always exact repeats. Equal values may be shown once. Read-outs that look alike come from different tables or passages of the source.

Molecular target: F.Xa (factor Xa of bovine origin) (Bos taurus, UniProt P00743)
Conditions: for conversion chart constant e (equation 2, anti-Xa activity % to ng/ml) / conversion chart constant i (equation 2, anti-Xa activity % to ng/ml): non-linear regression of equation 2
Text: The reagents from the commercial kit STA®—Liquid Anti-Xa (Diagnostica Stago, Asniéres sur Seine, France), F.Xa (factor Xa of bovine origin) and substrate (MAPA-Gly-Arg-pNA) were used. These commercial reagents and also the pool of normal human plasma Pool Norm (Diagnostica Stago, Asnieres sur Seine, France), the Owren Koller buffer (OKB) (pH 7.35, STA®—Owren-Koller, Diagnostica Stago, Asnieres sur Seine, France) and the desorption solution (DU) STA®—Desorb U (Diagnostica Stago, Asnieres sur Seine, France) were regenerated at room temperature for 30 minutes, as recommended by the manufacturer.
The kinetics were monitored by colorimetry at 405 nm, detecting the release of para-nitroanilide (pNA). The optical density (OD) was measured every two seconds. Two methodologies were optimized for assaying the three direct oral anti-Xa anticoagulants: the broad-range methodology and the narrow-range methodology. This is because the broad-range methodology makes it possible to assay the anticoagulants over the whole of the desired range; however, since the measurement of low concentrations of these anticoagulants requires great precision a narrow-range methodology was therefore developed.
In broad range, 6.25 μl of biological sample (plasma) were diluted with OKB in a final volume of 50 μl. The microcuvette was incubated for 240 seconds at 37° C. in the presence of 150 μl of substrate. The reaction was started by the addition of 150 μl of F.Xa, incubated beforehand at 37° C. In narrow range, 25 μl of sample were diluted with 25 μl of OKB. The experimental conditions for addition of substrate and enzyme are the same as for the broad-range methodology. The gradients were determined between 50 and 80 seconds.
The calibration was carried out from a range of F.Xa composed of 10 points ranging from 10% to 100% F.Xa, corresponding to an anti-Xa activity ranging from 90% to 0%. The range was created from reagents from the kit STA® Liquid Anti-Xa. The F.Xa (2 ml, 1.8 ml, . . . , 0.2 ml) was diluted in OKB (0 ml, 0.2 ml . . . 1.8 ml) for a final volume of 2 ml. The pool of healthy plasmas dated 04/2014 was used for this experiment. 5% DMSO was diluted to 1/20th in the plasma. The results (measurements of the OD/min between 50 and 80 seconds) were determined in two replicates.
The gradients of the kinetics measured for the 10 calibration points make it possible to plot the graph of anti-Xa activity (%) as a function of the OD/min. The equation of the line obtained is used to convert the OD/min of the samples tested into anti-Xa activity as percentage. The equation of the line is given by a polynomial regression of first order or of second order.
The parameters of the chart, specific to each direct oral anticoagulant (DOA), were determined for both of the methodologies (broad-range methodology and narrow-range methodology) by a non-linear regression of equation 2 on a few experimental points. […] The OD/min was measured for each sample between 50 and 80 seconds.
The limit of blank (LoB) was determined according to a standard procedure. The five different plasmas used were those dated January 2011, March 2012, April 2014, November 2014 and February 2015. Four replicates were carried out each day for three days, on the same automated device. The tests were carried out for the broad-range and narrow-range methodologies.
The limit of detection (LoD) was determined according to a standard procedure. Low-analyte plasmas were prepared. The overloads were carried out to 1/20th. The plasma dated 04/2014 was used. […] In narrow range, the concentrations of the overloads were 5 ng/ml for the three anticoagulants. Five overloads were produced for a final volume of 900 μl. When the regression of the universal calibration was a second-order polynomial, the concentrations of analytes in broad range and in narrow range were 2 ng/ml for the three direct oral anticoagulants (DOAs). The final volume of the overloads was 1000 μl. Each overload was separated into three tubes.

[1] = broad-range methodology, plasma sample diluted 1/8 in OKB, linear universal calibration
[2] = narrow-range methodology, plasma sample diluted 1/2 in OKB, linear universal calibration
[3] = optimization in narrow-range methodology, universal calibration regressed by second-order polynomial

Chain of F.Xa (factor Xa of bovine origin) (P00743 234-492 limits assumed): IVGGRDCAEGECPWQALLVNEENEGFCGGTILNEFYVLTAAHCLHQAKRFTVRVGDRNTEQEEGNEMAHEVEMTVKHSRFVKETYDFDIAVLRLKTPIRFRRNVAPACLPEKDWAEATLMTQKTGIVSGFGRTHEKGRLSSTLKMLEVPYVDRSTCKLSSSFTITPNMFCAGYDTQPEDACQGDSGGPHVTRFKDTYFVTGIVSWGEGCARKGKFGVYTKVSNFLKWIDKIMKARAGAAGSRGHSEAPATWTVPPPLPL
Chain of F.Xa (factor Xa of bovine origin) (P00743 41-180 partner limits assumed): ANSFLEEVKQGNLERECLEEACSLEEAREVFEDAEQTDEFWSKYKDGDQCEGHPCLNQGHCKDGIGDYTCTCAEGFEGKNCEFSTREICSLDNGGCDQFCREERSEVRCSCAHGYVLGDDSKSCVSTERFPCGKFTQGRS

SMILES: COc1ccc(-n2nc(C(N)=O)c3c2C(=O)N(c2ccc(N4CCCCC4=O)cc2)CC3)cc1 [apixaban]
- conversion chart constant e (equation 2, anti-Xa activity % to ng/ml) (broad-range methodology): 14.66
- conversion chart constant i (equation 2, anti-Xa activity % to ng/ml) (broad-range methodology): 1.35
- LoB (limit of blank) [1]: 16.613 ng/mL
- LoD (limit of detection) [1]: 21.8 ng/mL and 21.723 ng/mL
- conversion chart constant e (equation 2, anti-Xa activity % to ng/ml) (narrow-range methodology): 13.23
- conversion chart constant i (equation 2, anti-Xa activity % to ng/ml) (narrow-range methodology): 2.91
- LoB (limit of blank) [2]: 5.450 ng/mL
- LoD (limit of detection) [2]: 6.9 ng/mL and 6.882 ng/mL
- LoB (limit of blank) [3]: 2.759 ng/mL
- LoD (limit of detection) [3]: 4.001 ng/mL
